Reference: patent US20120077673A1, “Fungicidal Compositions and Methods of Use” (priority 2010, published 2012)

Columns and labels:
Type in all cases: in vivo
Details in all cases: Triadimenol 30 GA/100 Kg
[1] = system: Pythium; assay: Cotton field trial, Pythium-infected seeds, seed treatment, control or Pythium-inoculated soil (Example 2)
Source text: The seeds were planted in a field, either in soil that had been inoculated with Pythium (Soil Inoc. with Pythium), or in soil that had not been inoculated with Pythium (Ctrl.), then allowed to grow. Concentrations and compositions of triadimenol, metalaxyl, and saponin are the same as given in Example 1. For cotton, the industry standard dosage of metalaxyl is 15.5 grams of active ingredient per 100 kilograms of seed (15.5 GA/100 Kg). […] The data of TABLE 2 are shown graphically in FIG. 2. The relative densities for the data of TABLE 2 and FIG. 2 were calculated with reference to the 15.5 GA/100 Kg metalaxyl category. As shown by TABLE 2 and FIG. 2, inoculation of the soil with Pythium was correlated with a general decrease in cotton seedling count and density (compare Ctrl. versus Inoc.).

[2] = system: Pythium; assay: Corn field trial, Pythium-infected seeds, seed treatment, soil not inoculated (Example 1); set-up: Density: unit not given here
Source text: Unlike other experiments disclosed herein, the soil for the experiment of EXAMPLE 1 was not inoculated with Pythium. Uninfected untreated, and Pythium-infected untreated seeds served as controls. Triadimenol, 15% w/v, is a systemic broad-spectrum fungicide used for cereal seed treatment, but has no activity against Pythium spp. Metalaxyl, 28.35% w/v, provides systemic protection for the seed, roots, and emerging plants against Pythium, systemic downy mildew, and Phytophthora. For corn, the industry standard dosage of metalaxyl is 2 grams of active ingredient per 100 kilograms of seed (2 GA/100 Kg). Saponin, 49.65% v/v extract of Chenopodium quinoa saponins, contained approximately equimolar amounts of triterpene bidesmosidic glycosides of oleanolic acid, hederagenin, and phytolaccagenic acid. […] In TABLE 1, “Vigor” represents a subjective measure of plant health and is based on uniformity, consistent plant mass, and consistent plant spacing, with lower scores being more favorable than higher scores. The data of TABLE 1 are shown graphically in FIGS. 1A and 1B. As shown by TABLE 1 and FIGS. 1A and 1B, the count and the density increased—over time—for all treatment conditions. The relative density, however, decreased over time for the […] and metalaxyl (2 GA/100 kg) categories. The relative density remained the same for the untreated/uninfected category because it provided the reference point (i.e., the relative densities were calculated with reference to the untreated/uninfected category).

[3] = system: Pythium; assay: Cucumber field trial, Pythium-infected seeds, seed treatment, control or Pythium-inoculated soil (Example 3); set-up: Density: unit not given here
Source text: The seeds were planted in a field, either in soil that had been inoculated with Pythium (Soil Inoc. with Pythium), or in soil that had not been inoculated with Pythium (Ctrl.), then allowed to grow. Concentrations and compositions of triadimenol, metalaxyl, and saponin are the same as given in Example 1. For cucumber, the industry standard dosage of metalaxyl is 15.5 grams of active ingredient per 100 kilograms of seed (15.5 GA/100 Kg). […] The data of TABLE 3 are shown graphically in FIG. 3. The relative densities for the data of TABLE 3 and FIG. 3 were calculated with reference to the 31 GA/100 Kg metalaxyl category. As shown by TABLE 3 and FIG. 3, inoculation of the soil with Pythium was correlated with a general decrease in cucumber seedling count, density, and relative density (compare Ctrl. versus Inoc.).

[4] = system: Pythium; assay: Corn hybrids greenhouse trial, Pythium-infected seeds, seed treatment (Example 4)
Source text: Concentrations and compositions of triadimenol, metalaxyl, and saponin are the same as given in Example 1. The data of TABLE 4 are shown graphically in FIGS. 4A and 4B. As shown by TABLE 4 and FIGS. 4A and 4B, pre-treatment of both varieties of corn seeds with 1 GA/100 Kg metalaxyl and 0.6 GA/100 Kg yielded counts similar to those achieved from pre-treatment of seeds with either 2 GA/100 Kg metalaxyl (the industry standard dose for corn) or 7.5 GA/100 Kg metalaxyl.

[5] = 34 DAA, Soil Inoc. with Pythium
[6] = 46 DAA, Soil Inoc. with Pythium
[7] = 18 DAA, Soil Inoc. with Pythium
[8] = 33 DAA, Soil Inoc. with Pythium

CC(C)(C)C(O)C(Oc1ccc(Cl)cc1)n1cncn1 (stereo not shown) [Triadimenol]
Count ([1]; 34 DAA, Ctrl. soil): 39.5
Density ([1]; 34 DAA, Ctrl. soil): 79
Relative Density ([1]; 34 DAA, Ctrl. soil): 106.8
Count [1, 5]: 18.3
Density [1, 5]: 36.5
Relative Density [1, 5]: 73
Count ([1]; 46 DAA, Ctrl. soil): 40.3
Density ([1]; 46 DAA, Ctrl. soil): 80.5
Relative Density ([1]; 46 DAA, Ctrl. soil): 107.3
Count [1, 6]: 17.5
Density [1, 6]: 35
Relative Density [1, 6]: 71.4
Count ([2]; 30 DAA): 21
Density ([2]; 30 DAA): 25.9
Relative Density ([2]; 30 DAA): 69.2
Count ([2]; 46 DAA): 60
Density ([2]; 46 DAA): 74.4
Relative Density ([2]; 46 DAA): 96.4
Vigor ([2]; 46 DAA, subjective score, lower more favorable): 4.50
Count ([3]; 18 DAA, Ctrl. soil): 28
Density ([3]; 18 DAA, Ctrl. soil): 56
Relative Density ([3]; 18 DAA, Ctrl. soil): 80
Count [3, 7]: 10
Density [3, 7]: 20
Relative Density [3, 7]: 34.5
Count ([3]; 33 DAA, Ctrl. soil): 28.3
Density ([3]; 33 DAA, Ctrl. soil): 56.5
Relative Density ([3]; 33 DAA, Ctrl. soil): 83.1
Count [3, 8]: 4.3
Density [3, 8]: 8.5
Relative Density [3, 8]: 16.2
Count, Hybrid A ([4]; Day 2): 62
Count, Hybrid B ([4]; Day 2): 24
Count, Hybrid A ([4]; Day 7): 72
Count, Hybrid B ([4]; Day 7): 40
Count, Hybrid A ([4]; Day 14): 74
Count, Hybrid B ([4]; Day 14): 40
